According to US20240083886A1, “HETEROCYCLIC GLP-1 AGONISTS” (Gasherbrum Bio, Inc., priority 2020, published 2024):
Read-outs that look alike come from different tables or passages of the source.

Molecular target: GLP-1 Receptor (Homo sapiens, UniProt P43220)
Test: GLP-1R agonist cAMP stimulation assay
Format: cell-based
Description: Activation of GLP-1 receptor is known to stimulate cyclic AMP (cAMP) production in cells which indicates primary coupling to the Gαs subunit of the G protein heterotrimeric complex.
To optimize functional activity directed toward Gαs coupling, a HEK293/CRE-Luc cell line developed by HDB stably expressing the GLP-1 Receptor was used. 200× concentration of compound working solutions were prepared (Agilent Technologies Bravo) with ½ log serial dilution in 384-well Echo LDV plate (Labcyte, Cat #LP-0200). 50 nL/well 200× concentration of compound working solutions were moved to 384-well white low volume plate (Greiner, Cat #784075) using Labcyte ECHO550. 1×10^5 cells/mL HEK293/GLP1R/CRE-LUC(HD Biosciences) cell suspensions prepared with assay buffer[DPBS containing 0.5 mM IBMX(Sigma, Cat #15879) and 0.1% BSA (GENVIEW, Cat #FA016-100 g)], 10 uL cell suspensions were added to each well of previous generated assay plate which already contains 50 nl compound at 200×concentration using ThermoFisher Multidrop Combi (1000 cells/well). Seal the plate and incubate at 37° C. with 5% CO2 for 30 min.
After incubation the cAMP assay signal was generated using cAMP dynamic 2 Kit (Cisbio). 5 μL cAMP-d2 working solution was added to each well, followed with 5 μL Anti-cAMP antibody-cryptate working solution added to each well using ThermoFisher Multidrop Combi. Incubate at room temperature for 1 hour protected from light. Read the fluorescence at 665 and 615 nm with Reader PerkinElmer EnVision.
% Activity=100%×(mean RLU of test sample−mean RLU of vehicle control)/(mean RLU of MAX control−mean RLU of vehicle control))

[1] = HEK293/GLP1R/CRE-LUC cells, cAMP dynamic 2 Kit (Cisbio), 30 min incubation at 37° C., read-out: EC50

GLP-1 Receptor, sequence (P43220 24-463, species assumed): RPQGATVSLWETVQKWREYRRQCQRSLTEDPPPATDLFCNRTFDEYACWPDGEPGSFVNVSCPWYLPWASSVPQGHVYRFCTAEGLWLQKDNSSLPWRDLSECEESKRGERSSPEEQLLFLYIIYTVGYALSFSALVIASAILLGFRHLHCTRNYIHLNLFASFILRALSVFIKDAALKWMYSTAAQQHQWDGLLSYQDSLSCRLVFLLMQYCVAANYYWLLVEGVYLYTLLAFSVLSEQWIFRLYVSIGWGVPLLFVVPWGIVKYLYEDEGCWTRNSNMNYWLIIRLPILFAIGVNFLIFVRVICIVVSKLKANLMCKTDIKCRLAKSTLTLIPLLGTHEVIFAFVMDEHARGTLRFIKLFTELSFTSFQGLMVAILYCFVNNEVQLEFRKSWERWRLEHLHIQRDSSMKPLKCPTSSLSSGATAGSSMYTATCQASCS

SMILES | EC50 [1] | EC50
O=c1[nH]c(-c2cc3nc(CN4CCC(Oc5nc(Cc6ccc(Cl)cc6F)ncc5F)CC4)n(C[C@@H]4CCO4)c3cn2)no1 [Compound 171a, 3-(2-{[4-({2-[(4-chloro-2-fluorophenyl)methyl]-5-fluoropyrimidin-4-yl}oxy)piperidin-1-yl]methyl}-3-{[(2S)-oxetan-2-yl]methyl}-3H-imidazo[4,5-c]pyridin-6-yl)-4,5-dihydro-1,2,4-oxadiazol-5-one] | 0.17 nM | –
N#CC1(Cn2c(CN3CCC(Oc4ccnc(Cc5ccc(Cl)cc5)n4)CC3)nc3cc(-c4noc(=O)[nH]4)ccc32)CC1 [Compound 155, 1-[(2-{[4-({2-[(4-chlorophenyl)methyl]pyrimidin-4-yl}oxy)piperidin-1-yl]methyl}-5-(5-oxo-4,5-dihydro-1,2,4-oxadiazol-3-yl)-1H-1,3-benzodiazol-1-yl)methyl]cyclopropane-1-carbonitrile] | 0.32 nM | –
Fc1cc(Cl)ccc1Cc1cccc(OC2CCN(Cc3nc4cc(-c5nnc(C(F)(F)F)[nH]5)ncc4n3C3CCOCC3)CC2)n1 [Compound 191, 2-[(4-chloro-2-fluorophenyl)methyl]-6-[(1-{[3-(oxan-4-yl)-6-[5-(trifluoromethyl)-4H-1,2,4-triazol-3-yl]-3H-imidazo[4,5-c]pyridin-2-yl]methyl}piperidin-4-yl)oxy]pyridine] | 41 nM | –
Cc1nnc(-c2cc3nc(CN4CCC(Oc5nc(Cc6ccc(Cl)cc6F)ncc5F)CC4)n(C[C@@H]4CCO4)c3cn2)[nH]1 [Compound 170a, 2-[(4-chloro-2-fluorophenyl)methyl]-5-fluoro-4-[(1-{[6-(5-methyl-4H-1,2,4-triazol-3-yl)-3-{[(2S)-oxetan-2-yl]methyl}-3H-imidazo[4,5-c]pyridin-2-yl]methyl}piperidin-4-yl)oxy]pyrimidine] | – | 0.13 nM
O=C(Nc1ccc2c(c1)nc(CN1CCC(Oc3ccnc(Cc4ccc(Cl)cc4F)n3)CC1)n2C[C@@H]1CCO1)c1ccc(-c2ccccc2)nc1 [Compound 119a, N-(2-{[4-({2-[(4-chloro-2-fluorophenyl)methyl]pyrimidin-4-yl}oxy)piperidin-1-yl]methyl}-1-{[(2S)-oxetan-2-yl]methyl}-1H-1,3-benzodiazol-5-yl)-6-phenylpyridine-3-carboxamide] | 43 nM | –
FC(F)(F)c1cnn(Cc2cccc(OC3CCN(Cc4nc5cc(-c6nnc(C(F)(F)F)[nH]6)ncc5n4C[C@@H]4CCO4)CC3)n2)c1 [Compound 186a, 2-({1-[(3-{[(2S)-oxetan-2-yl]methyl}-6-[5-(trifluoromethyl)-4H-1,2,4-triazol-3-yl]-3H-imidazo[4,5-c]pyridin-2-yl)methyl]piperidin-4-yl}oxy)-6-{[4-(trifluoromethyl)-1H-pyrazol-1-yl]methyl}pyridine] | 4.4 nM | –
O=c1[nH]c(-c2ccc3c(c2)nc(CN2CCC(Oc4ccnc(Cc5ccc(Cl)cc5)n4)CC2)n3C[C@@H]2CCO2)no1 [Compound 108a, 3-(2-{[4-({2-[(4-chlorophenyl)methyl]pyrimidin-4-yl}oxy)piperidin-1-yl]methyl}-1-{[(2S)-oxetan-2-yl]methyl}-1H-1,3-benzodiazol-5-yl)-4,5-dihydro-1,2,4-oxadiazol-5-one] | 0.38 nM | –
N#CC1(Cn2c(CN3CCC(Oc4nc(Cc5ccc(Cl)cc5)ncc4F)CC3)nc3cc(-c4nnc(C(F)(F)F)[nH]4)ncc32)CC1 [Compound 178, 1-[(2-{[4-({2-[(4-chlorophenyl)methyl]-5-fluoropyrimidin-4-yl}oxy)piperidin-1-yl]methyl}-6-[5-(trifluoromethyl)-4H-1,2,4-triazol-3-yl]-3H-imidazo[4,5-c]pyridin-3-yl)methyl]cyclopropane-1-carbonitrile] | 0.2 nM | –
Fc1cc(Cl)ccc1Cc1nccc(OC2CCN(Cc3nc4cc(-c5nnc(C(F)(F)F)[nH]5)cnc4n3C[C@@H]3CCO3)CC2)n1 [Compound 142a, 2-[(4-chloro-2-fluorophenyl)methyl]-4-({1-[(3-{[(2S)-oxetan-2-yl]methyl}-6-[5-(trifluoromethyl)-4H-1,2,4-triazol-3-yl]-3H-imidazo[4,5-b]pyridin-2-yl)methyl]piperidin-4-yl}oxy)pyrimidine] | 0.048 nM | –
COc1ccc(C(=O)Nc2ccc3c(c2)nc(CN2CCC(Oc4ccnc(Cc5ccc(Cl)cc5F)n4)CC2)n3C[C@@H]2CCO2)cn1 [Compound 112a, N-(2-{[4-({2-[(4-chloro-2-fluorophenyl)methyl]pyrimidin-4-yl}oxy)piperidin-1-yl]methyl}-1-{[(2S)-oxetan-2-yl]methyl}-1H-1,3-benzodiazol-5-yl)-6-methoxypyridine-3-carboxamide] | 0.37 nM | –
Cc1cc(-c2ccc3c(c2)nc(CN2CCC(Oc4ccnc(Cc5ccc(Cl)cc5)n4)CC2)n3C[C@@H]2CCO2)[nH]n1 [Compound 131a, 2-{[4-({2-[(4-chlorophenyl)methyl]pyrimidin-4-yl}oxy)piperidin-1-yl]methyl}-5-(3-methyl-1H-pyrazol-5-yl)-1-{[(2S)-oxetan-2-yl]methyl}-1H-1,3-benzodiazole] | – | 1.8 nM
FC(F)(F)c1nnc(-c2cc3nc(CN4CCC(Oc5ccnc(Cc6ccc(Cl)cc6)n5)CC4)n(C[C@@H]4CCO4)c3cn2)[nH]1 [Compound 150a, 2-[(4-chlorophenyl)methyl]-4-({1-[(3-{[(2S)-oxetan-2-yl]methyl}-6-[5-(trifluoromethyl)-4H-1,2,4-triazol-3-yl]-3H-imidazo[4,5-c]pyridin-2-yl)methyl]piperidin-4-yl}oxy)pyrimidine] | – | 0.036 nM
Cc1nnc(-c2cnc3c(c2)nc(CN2CCC(Oc4nc(Cc5ccc(Cl)cc5)ncc4F)CC2)n3C[C@@H]2CCO2)[nH]1 [Compound 162a, 2-[(4-chlorophenyl)methyl]-5-fluoro-4-[(1-{[6-(5-methyl-4H-1,2,4-triazol-3-yl)-3-{[(2S)-oxetan-2-yl]methyl}-3H-imidazo[4,5-b]pyridin-2-yl]methyl}piperidin-4-yl)oxy]pyrimidine] | – | 2.9 nM
Fc1cc(Cl)ccc1Cc1nccc(OC2CCN(Cc3nc4cc(-c5nnc(C(F)(F)F)[nH]5)ncc4n3C[C@@H]3CCO3)CC2)n1 [Compound 138a, 2-[(4-chloro-2-fluorophenyl)methyl]-4-({1-[(3-{[(2S)-oxetan-2-yl]methyl}-6-[5-(trifluoromethyl)-4H-1,2,4-triazol-3-yl]-3H-imidazo[4,5-c]pyridin-2-yl)methyl]piperidin-4-yl}oxy)pyrimidine] | 0.03 nM | –
Fc1cc(Cl)ccc1Cc1cccc(OC2CCN(Cc3nc4cc(-c5nnc(C(F)(F)F)[nH]5)cnc4n3C[C@@H]3CCO3)CC2)n1 [Compound 141a, 2-[(4-chloro-2-fluorophenyl)methyl]-6-({1-[(3-{[(2S)-oxetan-2-yl]methyl}-6-[5-(trifluoromethyl)-4H-1,2,4-triazol-3-yl]-3H-imidazo[4,5-b]pyridin-2-yl)methyl]piperidin-4-yl}oxy)pyridine] | 0.13 nM | –
Clc1ccc(Cc2nccc(OC3CCN(Cc4nc5cc(-c6nnn[nH]6)ccc5n4Cc4cn[nH]c4)CC3)n2)cc1 [Compound 153, 2-{[4-({2-[(4-chlorophenyl)methyl]pyrimidin-4-yl}oxy)piperidin-1-yl]methyl}-1-[(1H-pyrazol-4-yl)methyl]-5-(1H-1,2,3,4-tetrazol-5-yl)-1H-1,3-benzodiazole] | 0.18 nM | –
Fc1cc(Cl)ccc1Cc1cccc(OC2CCN(Cc3nc4cc(-c5nnc(C(F)(F)F)[nH]5)nnc4n3C[C@@H]3CCO3)CC2)n1 [Compound 181a, 2-[(4-chloro-2-fluorophenyl)methyl]-6-({1-[(7-{[(2S)-oxetan-2-yl]methyl}-3-[5-(trifluoromethyl)-4H-1,2,4-triazol-3-yl]-7H-imidazo[4,5-c]pyridazin-6-yl)methyl]piperidin-4-yl}oxy)pyridine] | 0.58 nM | –
O=C(O)c1ccc2c(c1)nc(CN1CCC(Oc3ccnc(Cc4ccc(Cl)cc4)n3)CC1)n2C[C@@H]1CCO1 [Compound 134a, 2-{[4-({2-[(4-chlorophenyl)methyl]pyrimidin-4-yl}oxy)piperidin-1-yl]methyl}-1-{[(2S)-oxetan-2-yl]methyl}-1H-1,3-benzodiazole-5-carboxylic acid] | 0.053 nM | –
Fc1cc(Cl)ccc1COc1cccc(N[C@@H]2CCN(Cc3nc4cc(-c5nnc(C(F)(F)F)[nH]5)ncc4n3C[C@@H]3CCO3)C2)n1 [Compound 174a, 6-[(4-chloro-2-fluorophenyl)methoxy]-N-[(3R)-1-[(3-{[(2S)-oxetan-2-yl]methyl}-6-[5-(trifluoromethyl)-4H-1,2,4-triazol-3-yl]-3H-imidazo[4,5-c]pyridin-2-yl)methyl]pyrrolidin-3-yl]pyridin-2-amine] | 3.4 nM | –
FC(F)(F)c1nnc(-c2cnc3c(c2)nc(CN2CCC(Oc4ccnc(Cc5ccc(Cl)cc5)n4)CC2)n3C[C@@H]2CCO2)[nH]1 [Compound 120a, 2-[(4-chlorophenyl)methyl]-4-({1-[(3-{[(2S)-oxetan-2-yl]methyl}-6-[5-(trifluoromethyl)-4H-1,2,4-triazol-3-yl]-3H-imidazo[4,5-b]pyridin-2-yl)methyl]piperidin-4-yl}oxy)pyrimidine] | – | 0.17 nM
